Consider one molecule from patent US9993449B2, “(S)-3-amino-4-(difluoromethylenyl)cyclopent-1-ene-1-carboxylic acid, and related compounds as GABA aminotransferase inactivators for the treatment of epilepsy, addiction and hepatocellular carcinoma” (NORTHWESTERN UNIVERSITY, priority 2015, dated 2018).

The structures appear in SMILES notation. Where a name gives a salt, the structure may show the parent alone.

One data set concerns the target T1, CYP1A (Homo sapiens, UniProt P05177).
T1 construct: tissue Eurofins Panlabs; host or cells: human liver microsomes
T1 sequence (P05177 1-516): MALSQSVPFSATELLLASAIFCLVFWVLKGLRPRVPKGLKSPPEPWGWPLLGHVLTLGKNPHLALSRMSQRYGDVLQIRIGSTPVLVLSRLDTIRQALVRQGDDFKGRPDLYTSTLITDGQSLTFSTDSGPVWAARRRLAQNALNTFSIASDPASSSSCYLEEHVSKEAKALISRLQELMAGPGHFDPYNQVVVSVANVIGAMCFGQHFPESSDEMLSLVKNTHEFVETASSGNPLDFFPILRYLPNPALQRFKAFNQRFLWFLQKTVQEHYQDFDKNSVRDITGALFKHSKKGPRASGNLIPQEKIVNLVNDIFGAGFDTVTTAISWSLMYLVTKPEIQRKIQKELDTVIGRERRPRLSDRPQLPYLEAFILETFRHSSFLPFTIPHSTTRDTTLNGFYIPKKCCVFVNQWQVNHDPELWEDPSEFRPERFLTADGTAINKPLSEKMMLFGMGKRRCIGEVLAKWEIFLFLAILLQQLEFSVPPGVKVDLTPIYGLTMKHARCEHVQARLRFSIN
Description: CYP1A inhibition (HLM, phenacetin substrate). It is filed as in vitro ADME. Particulars: 10 μM, 10 min at 37° C. The protocol:
(§1) Inhibition of Microsomal Cytochromes P450. The experiments were performed by Eurofins Panlabs (Redmond, Wash. 98052, USA). CYP1A inhibition (HLM, phenacetin substrate), CYP2B6 inhibition (HLM, bupropion substrate), CYP2C8 inhibition (HLM, paclitaxel substrate), CYP2C9 inhibition (HLM, diclofenac substrate), CYP2C19 inhibition (HLM, omeprazole substrate), CYP2D6 inhibition (HLM, dextromethorphan substrate), and CYP3A inhibition (HLM, midazolam and testosterone substrates) were tested. The test concentration was 10 μM. The incubation time was 10 min at 37° C. The detection method was by HPLC-MS/MS. The experiments were duplicated, and the % inhibition of the control values was averaged (FIG. 8).

The target of another data set is T2, CYP2C8 (Homo sapiens, UniProt P10632).
T2 construct: tissue Eurofins Panlabs; host or cells: human liver microsomes
T2 sequence (P10632 1-490): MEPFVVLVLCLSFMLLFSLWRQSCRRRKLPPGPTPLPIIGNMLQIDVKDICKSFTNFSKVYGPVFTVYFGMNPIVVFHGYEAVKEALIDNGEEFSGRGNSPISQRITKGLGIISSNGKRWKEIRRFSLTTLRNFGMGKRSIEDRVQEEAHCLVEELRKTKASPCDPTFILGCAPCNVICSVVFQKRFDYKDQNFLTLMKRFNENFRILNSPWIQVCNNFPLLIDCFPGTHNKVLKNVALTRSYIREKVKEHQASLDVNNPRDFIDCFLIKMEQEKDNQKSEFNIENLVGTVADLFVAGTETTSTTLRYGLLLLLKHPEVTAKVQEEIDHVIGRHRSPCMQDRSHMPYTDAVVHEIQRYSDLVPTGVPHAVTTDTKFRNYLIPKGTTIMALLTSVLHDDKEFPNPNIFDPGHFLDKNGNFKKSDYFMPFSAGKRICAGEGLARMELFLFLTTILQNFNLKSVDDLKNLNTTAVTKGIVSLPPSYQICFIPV
Description: CYP2C8 inhibition (HLM, paclitaxel substrate). It is filed as in vitro ADME. Particulars: 10 μM, 10 min at 37° C. On the procedure:
as §1

Another data set deals with T3, hERG channel (Homo sapiens, UniProt Q12809).
T3 construct: host or cells: CHO-K1
T3 sequence (Q12809 whole entry): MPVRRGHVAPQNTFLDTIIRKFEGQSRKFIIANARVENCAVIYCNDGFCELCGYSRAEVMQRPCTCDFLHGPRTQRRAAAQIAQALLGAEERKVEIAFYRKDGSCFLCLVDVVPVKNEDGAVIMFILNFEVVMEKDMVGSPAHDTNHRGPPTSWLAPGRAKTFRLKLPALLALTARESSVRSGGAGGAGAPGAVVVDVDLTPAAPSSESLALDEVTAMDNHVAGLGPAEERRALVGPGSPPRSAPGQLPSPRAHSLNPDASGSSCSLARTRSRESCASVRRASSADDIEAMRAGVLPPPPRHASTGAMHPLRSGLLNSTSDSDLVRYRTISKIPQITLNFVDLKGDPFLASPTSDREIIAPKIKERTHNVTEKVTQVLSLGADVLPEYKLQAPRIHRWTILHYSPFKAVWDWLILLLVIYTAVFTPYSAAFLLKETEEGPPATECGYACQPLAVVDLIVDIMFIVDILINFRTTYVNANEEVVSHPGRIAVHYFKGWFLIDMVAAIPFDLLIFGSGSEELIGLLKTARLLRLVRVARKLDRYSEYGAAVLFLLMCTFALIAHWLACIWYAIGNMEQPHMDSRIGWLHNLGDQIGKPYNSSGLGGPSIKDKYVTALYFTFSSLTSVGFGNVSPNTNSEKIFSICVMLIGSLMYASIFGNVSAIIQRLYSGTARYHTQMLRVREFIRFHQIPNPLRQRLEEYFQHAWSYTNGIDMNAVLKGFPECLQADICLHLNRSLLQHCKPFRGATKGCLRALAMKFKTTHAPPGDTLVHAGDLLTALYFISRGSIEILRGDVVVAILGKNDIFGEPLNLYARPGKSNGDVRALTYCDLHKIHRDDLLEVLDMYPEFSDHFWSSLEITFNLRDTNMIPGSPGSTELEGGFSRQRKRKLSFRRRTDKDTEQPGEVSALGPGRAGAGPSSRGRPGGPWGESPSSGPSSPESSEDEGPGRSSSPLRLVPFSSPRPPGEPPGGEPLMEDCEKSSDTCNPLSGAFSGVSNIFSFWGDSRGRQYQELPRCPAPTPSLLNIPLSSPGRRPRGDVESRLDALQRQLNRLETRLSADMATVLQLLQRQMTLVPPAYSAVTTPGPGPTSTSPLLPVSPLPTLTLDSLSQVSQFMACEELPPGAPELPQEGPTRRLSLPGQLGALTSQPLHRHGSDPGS
Description: Inhibition of the hERG channel (automated whole-cell patch clamp, hERG CHO-K1 cell line). In kind it is cell-based. To be noted: 0.1 μM, 1 μM, and 10 μM; 5 min at room temperature. On the procedure: Inhibition of the hERG Channel. The experiments were performed by Eurofins Panlabs (Redmond, Wash. 98052, USA). hERG CHO-K1 cell line was used. The test concentrations were 0.1 μM, 1 μM, and 10 μM. The incubation time was 5 min at room temperature, cumulatively. The detection method used an automated whole-cell patch clamp. The experiments were duplicated, and the % inhibition of the tail current was averaged (FIG. 7).

For data set [1], the target named is T4, ornithine aminotransferase (OAT) (Homo sapiens, UniProt P04181).
T4 sequence (P04181 26-439): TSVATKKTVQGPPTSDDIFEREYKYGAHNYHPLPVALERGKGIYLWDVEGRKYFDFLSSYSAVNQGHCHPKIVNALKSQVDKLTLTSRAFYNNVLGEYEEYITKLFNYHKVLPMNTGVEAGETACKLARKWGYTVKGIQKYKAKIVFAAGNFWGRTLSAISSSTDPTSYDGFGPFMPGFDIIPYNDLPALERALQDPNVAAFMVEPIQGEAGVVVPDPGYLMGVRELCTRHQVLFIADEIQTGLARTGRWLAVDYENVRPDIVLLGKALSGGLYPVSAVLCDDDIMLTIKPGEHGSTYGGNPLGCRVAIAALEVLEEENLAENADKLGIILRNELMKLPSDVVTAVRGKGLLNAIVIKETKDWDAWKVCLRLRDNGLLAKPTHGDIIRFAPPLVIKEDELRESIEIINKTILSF
Particulars: read-out: KI for inactivation of OAT.
Description: All assays were performed in duplicate, and the remaining OAT activity at each preincubation time at each inhibitor concentration was averaged. The natural logarithm of the percentage of the remaining OAT activity was plotted against the preincubation time at each inhibitor concentration to obtain the kobs (slope) value for each concentration. The kobs is the rate constant describing the inactivation at each inhibitor concentration. kobs is replotted against the inhibitor concentration using nonlinear regression analysis (GraphPad Prism 6™; GraphPad Software Inc.). KI and kinact were estimated from equation (3):

The target in a further data set is T5, CYP2D6 (Homo sapiens, UniProt P10635).
T5 construct: tissue Eurofins Panlabs; host or cells: human liver microsomes
T5 sequence (P10635 whole entry): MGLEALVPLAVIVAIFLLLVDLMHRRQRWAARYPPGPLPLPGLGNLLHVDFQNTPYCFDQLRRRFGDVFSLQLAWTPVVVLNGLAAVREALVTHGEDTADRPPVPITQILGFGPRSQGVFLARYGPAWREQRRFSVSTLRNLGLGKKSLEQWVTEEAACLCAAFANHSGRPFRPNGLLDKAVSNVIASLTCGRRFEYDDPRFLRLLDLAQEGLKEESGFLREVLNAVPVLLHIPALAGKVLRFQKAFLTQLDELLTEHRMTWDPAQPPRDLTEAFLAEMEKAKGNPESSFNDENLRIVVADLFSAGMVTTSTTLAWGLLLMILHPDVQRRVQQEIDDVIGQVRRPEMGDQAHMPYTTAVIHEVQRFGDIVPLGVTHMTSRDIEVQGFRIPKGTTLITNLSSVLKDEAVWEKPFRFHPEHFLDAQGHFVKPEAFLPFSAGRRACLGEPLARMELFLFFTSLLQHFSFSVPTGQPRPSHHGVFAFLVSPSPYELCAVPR
Description: CYP2D6 inhibition (HLM, dextromethorphan substrate). It is filed as in vitro ADME. Particulars: 10 μM, 10 min at 37° C. On the procedure:
as §1

The nature of data set [2]: Metabolic stability in human liver microsomes (LC-MS/MS). In kind it is in vitro ADME. Particulars: for 90 min. On the procedure: This was accomplished by incubating 1 with the microsomes and monitoring its disappearance with time using LC-MS/MS. Terfenadine was run in similar condition as a positive control.
A further data set is described as follows: Plasma protein binding. It is filed as in vitro ADME.

Turning to `N[C@H]1C=C(C(=O)O)CC1=C(F)F` [Compound 1, (S)-3-Amino-4-(difluoromethylenyl)cyclopent-1-ene-1-carboxylic acid Hydrochloride], the “inhibition or induction of CYP 1A” value against CYP1A is on record as “does not inhibit or induce”. Further, the “inhibition or induction of CYP 2C8” value on CYP2C8 is reported as “does not inhibit or induce”. Besides, on hERG channel, the “inhibition of the activity of the hERG channel” value is “does not inhibit”. Further, the KI (inactivation) in data set [1] was 3.3 µM. Further, at CYP2D6, the “inhibition or induction of CYP 2D6” value was “does not inhibit or induce”. Also, in data set [2], the “metabolic stability in HLM” value is “stable”. Besides, in the data set “Plasma protein binding”, the fraction unbound was 0.73.
